Results from patent publication US20220016193A1, “ANTIBACTERIAL AND ANTIVIRUS COMPOSITION COMPRISING Extract of CANNABIS SATIVA L” (FAMENITY CO., LTD., priority 2020, published 2022).

Tests used:
Assay in all cases: agar diffusion method using a paper disk
[1] = system: Bacillus subtilis (KCTC1021); details: 2.5 mg/ml, 48 hours
Description: (§1) In order to measure the antibacterial activities of the Cannabis sativa L. extract (CE) and extract mixtures AM1 to AM6 produced in Production Example 1, a modification of the agar diffusion method (Piddock, L. J. V, Techniques used for the determination of antimicrobial resistance and sensitivity in bacteria, J. Appl. Bacteriol, 68, p. 307, 1990) using a paper disk was performed as follows.
(§2) The bacterial strains were used after subculture (Candida albicans: 24° C., Bacillus subtilis: 30° C., Streptococcus mutans: 37° C., Staphylococcus aureus: 37° C., and Escherichia coli: 37° C.).
(§3) One loop of each of the prepared strains was taken and inoculated in 5 ml of saline, and 1 ml of each of the active solutions was inoculated into a 4 to 5-mm-thick medium (Candida albicans—YM Agar (271210. BD), Bacillus subtilis—Nutrient Agar (213000 BD), Streptococcus mutans—Brain Heart (241830 BD), Staphylococcus aureus—Tryptic Soy Agar (236950 BD), Escherichia coli—Nutrient Agar (213000 BD); incubator: EYELA Multi-Thermo incubator MTI-202), and then spread evenly with a bent glass rod. […]
(§4) The solvent of each injected extract mixture was volatilized, and incubation was performed at 37° C. for 48 hours. Then, the diameter of the inhibition zone formed around each paper disc was measured. […]

[2] = system: Candida albicans (KCTC7270); details: 2.5 mg/ml, 48 hours
Description: as §1, §2, §3, §4

[3] = system: Escherichia coli (KCTC7039); details: 2.5 mg/ml, 48 hours
Description: as §1, §2, §3, §4

[4] = system: Staphylococcus aureus (KCTC1621); details: 2.5 mg/ml, 48 hours
Description: as §1, §2, §3, §4

[5] = system: Streptococcus mutans (KCTC3065)
Description: as §1, §2, §3, §4

## COc1ccc(O)c(C(C)(C)C)c1 [BHA, butylated hydroxyanisole]
[1]
  Inhibition zone: 16.6 mm
[2]
  Inhibition zone: 16.0 mm
[3]
  Inhibition zone: 18.4 mm
[4]
  Inhibition zone: 16.0 mm
[5]; Streptococcus mutans, 2.5 mg/ml, 48 hours
  Inhibition zone: 3.5 mm
[5]; against S. mutans
  antibacterial effect (in words): little antibacterial effect
